Laboratory results taken from patent US11370897B2, “Curable composition comprising UV stabilizer” (Momentive Performance Materials Inc., priority 2019, dated 2022).
Read-outs that look alike come from different tables or passages of the source.

Experiment: Solubility tests of resorcinol products in alcoholic solvents
Type: physicochemical
Conditions: organic solvent or mixture, thermodynamic from solid, 20° C., Table 11, by product ratio DBMR/BTMR/DTMR
Protocol: To determine the solubility of resorcinol products, the following procedure was used:
0.50 g of pre-dried product (45 min @75° C. in oven) was combined with 5.00 ml of solvent (4.03 g of 2-butanol or 4.60 g of 1-methoxy-2-propanol). The mixture was handled in an ultrasonic bath for 1 min and stored afterwards under constant climate (20° C.) for 24 h.
The overlying solution was transfused carefully with a pipette. The solid content of this solution was measured thermogravimetrically with a halogen moisture analyzer (Mettler Toledo). This test procedure was repeated three times.

[1] = 1-methoxy-2-propanol, read-out: Solubility in 1-Methoxy-2-propanol
[2] = 2-butanol, read-out: Solubility in 2-butanol

| Compound | solubility at 24 h [1] [µg/mL] | solubility at 24 h [2] [µg/mL] |
| --- | --- | --- |
| Cc1c(O)c(C(=O)c2ccccc2)cc(C(=O)c2ccccc2)c1O [DBMR, dibenzoylacyl-2-methyl resorcinol] | 4000 | < 1000 |
| Cc1cccc(C(=O)c2cc(C(=O)c3cccc(C)c3)c(O)c(C)c2O)c1 [DTMR, ditoluoylacyl-2-methyl resorcinol] | 15000 | 1000 |
